Assay results reported in patent publication US20240142467A1, “Use of Biomarkers in the Treatment of Fibrotic Conditions with a PDE4B-inhibitor” (Boehringer Ingelheim International GmbH, priority 2022, published 2024).

Tested on: patients with idiopathic pulmonary fibrosis
Assay: Phase 2 trial NCT04419506: biomarker analysis in blood plasma or serum (ELISA, Luminex; MMRM)
Assay type: in vivo, human
Description: Blood samples were collected from patients during the clinical phase 2 trial at baseline, at 2, 4, 8 and 12 weeks (after baseline) of the “Compound of formula A′ treatment arm” and of the “Placebo arm”, and blood plasma and/or blood serum was prepared according to methods known in the art.
Fibrosis-related biomarkers were assessed in plasma or serum using ELISA or Luminex technologies. The changes in these fibrosis-related biomarkers at weeks 2, 4, 8 and 12 after baseline were analysed using mixed models with repeated measures (MMRM). The fold changes in the tested biomarkers over baseline over time were then compared between patients of the of the “Compound of formula A′ treatment arm” and patients of the “Placebo arm”.
Biomarker values were only considered valid up to +2 days for CRP and up to +7 days after last drug intake for all other proteins.
At MLM (MLM Medical Labs GmbH, Mönchengladbach, Germany, www.mlm-labs.com) the biomarker KL-6 (Krebs von den Lungen) was measured using CLEIA Test kits (Lumipulse® G KL-6 Immunoreaction Cartridges) from Fujirebio (www.fujirebio.com) and a Lumipulse G1200 system, the biomarker sICAM-1 was measured using an ECLIA assay (V-PLEX Plus Vascular Injury Panel 2 Human Kit) from Meso Scale Discovery (MSD) on the Meso QuickPlex SQ120 device, and the biomarker MMP-7 was measured using a Quantikine® ELISA assay (Human MMP-7/PARC Quantikine® ELISA kit) from R&D Systems on a TECAN Absorbance Reader, according to manufacturer's instructions.
The biomarkers CA-125, CA19-9, COMP, CRP, E-selectin, sICAM-1, MMP-3, MMP-7, Prostasin, TIMP-1, and vWF were measured using validated microsphere-based immune-multiplexing assays using Luminex technology at MyriadRBM (Rules Based Medicine, a q2 solutions company, Austin, Texas, USA, www.rbm.q2labsolutions.com).
The biomarker data as collected from the different treatment groups of the phase II trial have been analysed with regard to three different aspects: • 1. The biomarker data has been analysed with regard to the “pharmacodynamic potential” of each respective biomarker, that means the change from baseline (CfB) of the biomarker level over time during treatment with the compound of formula A′ has been analysed. […] The biomarker data has been analysed with regard to the “prognostic potential” of each respective biomarker, that means the level of biomarker at baseline vs. clinical outcome after 12 weeks (=the absolute FVC [mL] change from baseline at week 12 and the absolute change from baseline in Dlco % predicted at week 12) in the Placebo groups has been analysed which is disease-related and may be used to assess the progression of the disease (e.g. fast vs. slow progressors). • 3. The biomarker data has been analysed with regard to their “outcome-related potential” of each respective biomarker, that means the change from baseline (CfB) in biomarker level vs. the clinical outcomes after 12 weeks (=the absolute FVC [mL] change from baseline at week 12 and the absolute change from baseline in Dlco % predicted at week 12) in the compound of formula A′ treatment groups has been analysed. Hereby, a potential early prediction of both clinical endpoint and treatment effect may be achieved.

[1] = AF-background, listed as Comp. A′
[2] = Non-AF-background, listed as Comp. A′

SMILES: [O-][S@+]1CCc2nc(N3CCC(c4ncc(Cl)cn4)CC3)nc(NC3(CO)CCC3)c21 [Compound of formula A′]
- CRP: change of biomarker from baseline to Week 12 in Comp. A′ arm vs. Placebo arm (AF-background): increased
- E-selectin: change of biomarker from baseline to Week 12 in Comp. A′ arm vs. Placebo arm (AF-background): decreased
- KL-6: change of biomarker from baseline to Week 12 in Comp. A′ arm vs. Placebo arm (AF-background): decreased
- Matrilysin (MMP7, MLM): change of biomarker from baseline to Week 12 in Comp. A′ arm vs. Placebo arm (AF-background): decreased
- Prostasin: change of biomarker from baseline to Week 12 in Comp. A′ arm vs. Placebo arm (AF-background): ↓
- SP-D: change of biomarker from baseline to Week 12 in Comp. A′ arm vs. Placebo arm (AF-background): decreased
- CA19.9 (U/mL): fold change from baseline to Week 4, adjusted mean (AF-background, blood, MMRM): 0.987
- CA19.9 (U/mL): fold change from baseline to Week 12, adjusted mean (AF-background, blood, MMRM): 0.914
- CA-125 (MUC-16) (U/mL): fold change from baseline to Week 4, adjusted mean (AF-background, blood, MMRM): 1.030
- CA-125 (MUC-16) (U/mL): fold change from baseline to Week 12, adjusted mean (AF-background, blood, MMRM): 1.067
- COMP (μg/L): fold change from baseline to Week 4, adjusted mean (AF-background, blood, MMRM): 0.991
- COMP (μg/L): fold change from baseline to Week 12, adjusted mean (AF-background, blood, MMRM): 1.023
- CRP (mg/L): fold change from baseline to Week 4, adjusted mean (AF-background, blood, MMRM): 1.780
- CRP (mg/L): fold change from baseline to Week 12, adjusted mean (AF-background, blood, MMRM): 1.545
- E-selectin (μg/L): fold change from baseline to Week 4, adjusted mean (AF-background, blood, MMRM): 0.933
- E-selectin (μg/L): fold change from baseline to Week 12, adjusted mean (AF-background, blood, MMRM): 0.936
- KL-6 (U/mL): fold change from baseline to Week 4, adjusted mean (AF-background, blood, MMRM): 0.960
- KL-6 (U/mL): fold change from baseline to Week 12, adjusted mean (AF-background, blood, MMRM): 0.923
- Matrilysin (μg/L) (MMP7, MLM): fold change from baseline to Week 4, adjusted mean (AF-background, blood, MMRM): 0.941
- Matrilysin (μg/L) (MMP7, MLM): fold change from baseline to Week 12, adjusted mean (AF-background, blood, MMRM): 0.981
- Prostasin (μg/L): fold change from baseline to Week 4, adjusted mean (AF-background, blood, MMRM): 0.939
- Prostasin (μg/L): fold change from baseline to Week 12, adjusted mean (AF-background, blood, MMRM): 0.933
- SP-D (μg/L): fold change from baseline to Week 4, adjusted mean (AF-background, blood, MMRM): 0.879
- SP-D (μg/L): fold change from baseline to Week 12, adjusted mean (AF-background, blood, MMRM): 0.894
- Stromelysin-1 MMP3) (μg/L): fold change from baseline to Week 4, adjusted mean (AF-background, blood, MMRM): 1.063
- Stromelysin-1 MMP3) (μg/L): fold change from baseline to Week 12, adjusted mean (AF-background, blood, MMRM): 1.056
- sICAM1 (RBM) (μg/L): fold change from baseline to Week 4, adjusted mean (AF-background, blood, MMRM): 1.049
- sICAM1 (RBM) (μg/L): fold change from baseline to Week 12, adjusted mean (AF-background, blood, MMRM): 1.069
- vWF (mg/L): fold change from baseline to Week 4, adjusted mean (AF-background, blood, MMRM): 1.035
- vWF (mg/L): fold change from baseline to Week 12, adjusted mean (AF-background, blood, MMRM): 0.964
- CRP: change of biomarker from baseline to Week 12 in Comp. A′ arm vs. Placebo arm [1]: ↑ (significant increase)
- E-selectin: change of biomarker from baseline to Week 12 in Comp. A′ arm vs. Placebo arm [1]: ↓
- KL-6: change of biomarker from baseline to Week 12 in Comp. A′ arm vs. Placebo arm [1]: ↓ (significant decrease)
- Matrilysin (MMP7, MLM): change of biomarker from baseline to Week 12 in Comp. A′ arm vs. Placebo arm [1]: ↓
- SP-D: change of biomarker from baseline to Week 12 in Comp. A′ arm vs. Placebo arm [1]: ↓ (significant decrease)
- CA19-9: change of biomarker from baseline to Week 12 in Comp. A′ arm vs. Placebo arm (Non-AF-background): ↓
- CA-125 (MUC-16): change of biomarker from baseline to Week 12 in Comp. A′ arm vs. Placebo arm (Non-AF-background): decreased
- COMP: change of biomarker from baseline to Week 12 in Comp. A′ arm vs. Placebo arm (Non-AF-background): decreased
- CRP: change of biomarker from baseline to Week 12 in Comp. A′ arm vs. Placebo arm (Non-AF-background): increased
- E-selectin: change of biomarker from baseline to Week 12 in Comp. A′ arm vs. Placebo arm (Non-AF-background): decreased
- KL-6: change of biomarker from baseline to Week 12 in Comp. A′ arm vs. Placebo arm (Non-AF-background): decreased
- Matrilysin (MMP7, MLM): change of biomarker from baseline to Week 12 in Comp. A′ arm vs. Placebo arm (Non-AF-background): decreased
- Prostasin: change of biomarker from baseline to Week 12 in Comp. A′ arm vs. Placebo arm (Non-AF-background): decreased
- SP-D: change of biomarker from baseline to Week 12 in Comp. A′ arm vs. Placebo arm (Non-AF-background): decreased
- Stromelysin-1 (MMP3): change of biomarker from baseline to Week 12 in Comp. A′ arm vs. Placebo arm (Non-AF-background): ↓
- sICAM1 (RBM): change of biomarker from baseline to Week 12 in Comp. A′ arm vs. Placebo arm (Non-AF-background): basically the same
- vWF: change of biomarker from baseline to Week 12 in Comp. A′ arm vs. Placebo arm (Non-AF-background): decreased
- CA19-9 (U/mL): fold change from baseline to Week 4, adjusted mean (Non-AF-background, blood, MMRM): 0.901
- CA19-9 (U/mL): fold change from baseline to Week 12, adjusted mean (Non-AF-background, blood, MMRM): 1.016
- CA-125 (MUC-16) (U/mL): fold change from baseline to Week 4, adjusted mean (Non-AF-background, blood, MMRM): 0.956
- CA-125 (MUC-16) (U/mL): fold change from baseline to Week 12, adjusted mean (Non-AF-background, blood, MMRM): 1.039
- COMP (μg/L): fold change from baseline to Week 4, adjusted mean (Non-AF-background, blood, MMRM): 0.970
- COMP (μg/L): fold change from baseline to Week 12, adjusted mean (Non-AF-background, blood, MMRM): 0.949
- CRP (mg/L): fold change from baseline to Week 4, adjusted mean (Non-AF-background, blood, MMRM): 2.134
- CRP (mg/L): fold change from baseline to Week 12, adjusted mean (Non-AF-background, blood, MMRM): 1.479
- E-selectin (μg/L): fold change from baseline to Week 4, adjusted mean (Non-AF-background, blood, MMRM): 0.943
- E-selectin (μg/L): fold change from baseline to Week 12, adjusted mean (Non-AF-background, blood, MMRM): 0.982
- KL-6 (U/mL): fold change from baseline to Week 4, adjusted mean (Non-AF-background, blood, MMRM): 0.911
- KL-6 (U/mL): fold change from baseline to Week 12, adjusted mean (Non-AF-background, blood, MMRM): 0.916
- Matrilysin (μg/L) (MMP7, MLM): fold change from baseline to Week 4, adjusted mean (Non-AF-background, blood, MMRM): 0.908
- Matrilysin (μg/L) (MMP7, MLM): fold change from baseline to Week 12, adjusted mean (Non-AF-background, blood, MMRM): 0.883
- Prostasin (μg/L): fold change from baseline to Week 4, adjusted mean (Non-AF-background, blood, MMRM): 0.883
- Prostasin (μg/L): fold change from baseline to Week 12, adjusted mean (Non-AF-background, blood, MMRM): 0.905
- SP-D (μg/L): fold change from baseline to Week 4, adjusted mean (Non-AF-background, blood, MMRM): 0.833
- SP-D (μg/L): fold change from baseline to Week 12, adjusted mean (Non-AF-background, blood, MMRM): 0.875
- Stromelysin-1 MMP3) (μg/L): fold change from baseline to Week 4, adjusted mean (Non-AF-background, blood, MMRM): 0.963
- Stromelysin-1 MMP3) (μg/L): fold change from baseline to Week 12, adjusted mean (Non-AF-background, blood, MMRM): 0.960
- sICAM1 (RBM) (μg/L): fold change from baseline to Week 4, adjusted mean (Non-AF-background, blood, MMRM): 0.956
- sICAM1 (RBM) (μg/L): fold change from baseline to Week 12, adjusted mean (Non-AF-background, blood, MMRM): 0.937
- vWF (μg/L) (mg/L): fold change from baseline to Week 4, adjusted mean (Non-AF-background, blood, MMRM): 0.991
- vWF (μg/L) (mg/L): fold change from baseline to Week 12, adjusted mean (Non-AF-background, blood, MMRM): 0.972
- CA-125 (MUC-16): change of biomarker from baseline to Week 12 in Comp. A′ arm vs. Placebo arm [2]: ↓ (minor decrease)
- COMP: change of biomarker from baseline to Week 12 in Comp. A′ arm vs. Placebo arm [2]: ↓
- CRP: change of biomarker from baseline to Week 12 in Comp. A′ arm vs. Placebo arm [2]: ↑ (significant increase)
- E-selectin: change of biomarker from baseline to Week 12 in Comp. A′ arm vs. Placebo arm [2]: ↓
- KL-6: change of biomarker from baseline to Week 12 in Comp. A′ arm vs. Placebo arm [2]: ↓ (significant decrease)
- Matrilysin (MMP7, MLM): change of biomarker from baseline to Week 12 in Comp. A′ arm vs. Placebo arm [2]: ↓ (significant decrease)
- Prostasin: change of biomarker from baseline to Week 12 in Comp. A′ arm vs. Placebo arm [2]: ↓
- SP-D: change of biomarker from baseline to Week 12 in Comp. A′ arm vs. Placebo arm [2]: ↓ (significant decrease)
- vWF: change of biomarker from baseline to Week 12 in Comp. A′ arm vs. Placebo arm [2]: ↓
- elevation of the CRP-levels (treatment groups regardless of background therapy): approximately 2 ×
